Test results reported in PubChem BioAssay (NCI).
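Values below derive from 48-hour exposures of cells grown in 96-well plates, with endpoints linearly interpolated between the two concentrations bracketing the appropriate inhibition level. TGI: concentration producing complete growth inhibition.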

What was measured:
Assay in all cases: growth of human tumour cells (NCI), 48 h
[1] = test system: PC-3 prostate
[2] = test system: UO-31 renal
[3] = test system: OVCAR-4 ovarian
[4] = test system: SF-539 CNS
[5] = test system: LOX IMVI melanoma
[6] = test system: CCRF-CEM leukemia
[7] = test system: TK-10 renal
[8] = test system: OVCAR-3 ovarian
[9] = test system: HCT-15 colon
[10] = test system: MDA-MB-435
[11] = test system: NCI-H23 lung
[12] = test system: DU-145 prostate
[13] = test system: SNB-19 CNS
[14] = test system: MDA-MB-231 breast
[15] = test system: KM12 colon
[16] = test system: MOLT-4 leukemia
[17] = test system: K-562 leukemia
[18] = test system: NCI-H522 lung
[19] = test system: NCI-H226 lung
[20] = test system: HT29 colon
[21] = test system: SF-268 CNS
[22] = test system: HOP-62 NSCLC
[23] = test system: RXF 393 renal
[24] = test system: CAKI-1 renal
[25] = test system: HL-60(TB) leukemia
[26] = test system: SNB-75 CNS
[27] = test system: IGROV1 ovarian
[28] = test system: 786-0 renal
[29] = test system: HS 578T breast
[30] = test system: SW-620 colon
[31] = test system: SN12C renal
[32] = test system: MCF7 breast
[33] = test system: SK-MEL-28 melanoma
[34] = test system: SK-MEL-5 melanoma
[35] = test system: T-47D breast
[36] = test system: HOP-92 NSCLC
[37] = test system: M14 melanoma
[38] = test system: SR leukemia
[39] = test system: A549 NSCLC
[40] = test system: MDA-N
[41] = test system: SK-OV-3 ovarian
[42] = test system: MALME-3M melanoma
[43] = test system: RPMI-8226 leukemia
[44] = test system: UACC-257 melanoma
[45] = test system: COLO 205 colon
[46] = test system: OVCAR-8 ovarian
[47] = test system: NCI/ADR-RES ovarian
[48] = test system: U251 CNS
[49] = test system: A498 renal
[50] = test system: SF-295 CNS
[51] = test system: ACHN renal
[52] = test system: HCT-116 colon
[53] = test system: SK-MEL-2 melanoma
[54] = test system: OVCAR-5 ovarian
[55] = test system: EKVX NSCLC
[56] = test system: NCI-H460 lung
[57] = test system: BT-549 breast
[58] = test system: UACC-62 melanoma
[59] = test system: HCC-2998 colon

## COc1ccc(/C=C2/NC(=S)N=C2Cl)cc1
[1]
  TGI: > 100 µM
[2]
  TGI: > 100 µM
[3]
  TGI: > 100 µM
[4]
  TGI: > 100 µM
[5]
  TGI: > 100 µM
[6]
  TGI: > 100 µM
[7]
  TGI: > 100 µM
[8]
  TGI: > 100 µM
[9]
  TGI: > 100 µM
[10]
  TGI: > 100 µM
[11]
  TGI: > 100 µM
[12]
  TGI: > 100 µM
[13]
  TGI: > 100 µM
[14]
  TGI: > 100 µM
[15]
  TGI: > 100 µM
[16]
  TGI: > 100 µM
[17]
  TGI: > 100 µM
[18]
  TGI: > 100 µM
[19]
  TGI: > 100 µM
[20]
  TGI: > 100 µM
[21]
  TGI: > 100 µM
[22]
  TGI: > 100 µM
[23]
  TGI: > 100 µM
[24]
  TGI: > 100 µM
[25]
  TGI: > 100 µM
[26]
  TGI: > 100 µM
[27]
  TGI: > 100 µM
[28]
  TGI: > 100 µM
[29]
  TGI: > 100 µM
[30]
  TGI: > 100 µM
[31]
  TGI: > 100 µM
[32]
  TGI: > 100 µM
[33]
  TGI: > 100 µM
[34]
  TGI: > 100 µM
[35]
  TGI: > 100 µM
[36]
  TGI: > 100 µM
[37]
  TGI: > 100 µM
[38]
  TGI: > 100 µM
[39]
  TGI: > 100 µM
[40]
  TGI: > 100 µM
[41]
  TGI: > 100 µM
[42]
  TGI: > 100 µM
[43]
  TGI: > 100 µM
[44]
  TGI: > 100 µM
[45]
  TGI: > 100 µM
[46]
  TGI: > 100 µM
[47]
  TGI: > 100 µM
[48]
  TGI: > 100 µM
[49]
  TGI: > 100 µM
[50]
  TGI: > 100 µM
[51]
  TGI: > 100 µM
[52]
  TGI: > 100 µM
[53]
  TGI: > 100 µM
[54]
  TGI: 37.9 µM
[55]
  TGI: > 100 µM

## O=C(O)CNn1c(SCC(=O)O)nnc(/C=C/c2c(O)ccc3ccccc23)c1=O
[1]
  TGI: > 100 µM
[2]
  TGI: > 100 µM
[3]
  TGI: > 100 µM
[4]
  TGI: > 100 µM
[5]
  TGI: 31.8 µM
[6]
  TGI: 14.9 µM
[8]
  TGI: > 100 µM
[9]
  TGI: > 100 µM
[10]
  TGI: > 100 µM
[11]
  TGI: 52.6 µM
[12]
  TGI: > 100 µM
[13]
  TGI: > 100 µM
[15]
  TGI: > 100 µM
[56]
  TGI: > 100 µM
[57]
  TGI: 63.8 µM
[17]
  TGI: 62.7 µM
[18]
  TGI: > 100 µM
[20]
  TGI: > 100 µM
[21]
  TGI: 97.3 µM
[22]
  TGI: > 100 µM
[24]
  TGI: > 100 µM
[25]
  TGI: 25.9 µM
[27]
  TGI: 0.962 µM
[28]
  TGI: > 100 µM
[29]
  TGI: 94.4 µM
[30]
  TGI: > 100 µM
[31]
  TGI: > 100 µM
[32]
  TGI: > 100 µM
[33]
  TGI: > 100 µM
[34]
  TGI: 42.8 µM
[35]
  TGI: > 100 µM
[37]
  TGI: 43.5 µM
[38]
  TGI: 60 µM
[39]
  TGI: > 100 µM
[40]
  TGI: > 100 µM
[58]
  TGI: 74.4 µM
[41]
  TGI: > 100 µM
[42]
  TGI: > 100 µM
[59]
  TGI: > 100 µM
[43]
  TGI: > 100 µM
[44]
  TGI: > 100 µM
[45]
  TGI: > 100 µM
[46]
  TGI: 28.6 µM
[47]
  TGI: 67.9 µM
[48]
  TGI: > 100 µM
[49]
  TGI: > 100 µM
[50]
  TGI: > 100 µM
[51]
  TGI: > 100 µM
[52]
  TGI: > 100 µM
[53]
  TGI: > 100 µM
[54]
  TGI: > 100 µM
[55]
  TGI: 66.2 µM
